Assay results: patent US20220009922A1, “NOVEL UREA 6,7-DIHYDRO-4H-PYRAZOLO[4,3-C]PYRIDINES ACTIVE AGAINST THE HEPATITIS B VIRUS (HBV)” (AiCuris GmbH & Co. KG, priority 2018, published 2022)

These compounds were tested on HepAD38 cells (assay: Cell viability assay (AlamarBlue) in HepAD38 cells). Settings: HepAD38 cells in the presence of 0.3 μg/ml tetracycline, six days incubation.

Q: Which CC50 does the source give for CC1Cc2n[nH]c(C(=O)N3CC(F)(F)CC34CC4)c2CN1C(=O)Nc1ccc(F)c(Cl)c1 (single isomer, unassigned) [Example 9, N-(3-chloro-4-fluorophenyl)-3-{6,6-difluoro-4-azaspiro[2.4]heptane-4-carbonyl}-6-methyl-2H,4H,5H,6H,7H-pyrazolo[4,3-c]pyridine-5-carboxamide] here?
A: Its CC50 is > 10 µM.

What follows are compounds tested on HBV (assay: not given). Settings: Hepatitis B virus, HePAD38, 144 h, read-out: Cell Activity (EC50).

Q: For CC1Cc2n[nH]c(C(=O)N3CC(F)(F)CC34CC4)c2CN1C(=O)Nc1ccc(F)c(Cl)c1 (single isomer, unassigned) [Example 8, N-(3-chloro-4-fluorophenyl)-3-{6,6-difluoro-4-azaspiro[2.4]heptane-4-carbonyl}-6-methyl-2H,4H,5H,6H,7H-pyrazolo[4,3-c]pyridine-5-carboxamide], which EC50 is on record?
A: The EC50 was < 1000 nM.

Q: How did the EC50 turn out when CN(C(=O)c1n[nH]c2c1CN(C(=O)Nc1ccc(F)c(Cl)c1)CC2)C1(COC(F)F)CC1 [Example 1, N5-(3-chloro-4-fluorophenyl)-N3-{1-[(difluoromethoxy)methyl]cyclopropyl}-N3-methyl-1H,4H,5H,6H,7H-pyrazolo[4,3-c]pyridine-3,5-dicarboxamide] was run?
A: Its EC50 is < 1000 nM.

Q: Which EC50 does the source give for COCC1(N(C)C(=O)c2n[nH]c3c2CN(C(=O)Nc2ccc(F)c(Cl)c2)CC3)CC1 [Example 2, N5-(3-chloro-4-fluorophenyl)-N3-[1-(methoxymethyl)cyclopropyl]-N3-methyl-1H,4H,5H,6H,7H-pyrazolo[4,3-c]pyridine-3,5-dicarboxamide] here?
A: Its EC50 is < 1000 nM.

Q: How did the EC50 turn out when CN(C(=O)c1n[nH]c2c1CN(C(=O)Nc1ccc(F)c(Cl)c1)CC2)C1(CO)CC1 [Example 3, N5-(3-chloro-4-fluorophenyl)-N3-[1-(hydroxymethyl)cyclopropyl]-N3-methyl-1H,4H,5H,6H,7H-pyrazolo[4,3-c]pyridine-3,5-dicarboxamide] was run?
A: The EC50 was < 1000 nM.

Q: COCC1(N(C)C(=O)c2n[nH]c3c2CN(C(=O)Nc2ccc(F)c(C#N)c2)CC3)CC1 [Example 4, N5-(3-cyano-4-fluorophenyl)-N3-[1-(methoxymethyl)cyclopropyl]-N3-methyl-1H,4H,5H,6H,7H-pyrazolo[4,3-c]pyridine-3,5-dicarboxamide] was tested. Which EC50 did it give?
A: The EC50 was < 1000 nM.

Q: CC(C)OCC1(N(C)C(=O)c2n[nH]c3c2CN(C(=O)Nc2ccc(F)c(Cl)c2)CC3)CC1 [Example 5, N5-(3-chloro-4-fluorophenyl)-N3-methyl-N3-{1-[(propan-2-yloxy)methyl]cyclopropyl}-1H,4H,5H,6H,7H-pyrazolo[4,3-c]pyridine-3,5-dicarboxamide] was tested. Which EC50 did it give?
A: Its EC50 is < 1000 nM.

Q: CCOCC1(N(C)C(=O)c2n[nH]c3c2CN(C(=O)Nc2ccc(F)c(Cl)c2)CC3)CC1 [Example 6, N5-(3-chloro-4-fluorophenyl)-N3-[1-(ethoxymethyl)cyclopropyl]-N3-methyl-1H,4H,5H,6H,7H-pyrazolo[4,3-c]pyridine-3,5-dicarboxamide] was tested. Which EC50 did it give?
A: The EC50 was < 1000 nM.

Q: Which EC50 does the source give for O=C(Nc1ccc(F)c(Cl)c1)N1CCc2n[nH]c(C(=O)N3CC(F)(F)CC34CC4)c2C1 [Example 7, N-(3-chloro-4-fluorophenyl)-3-{6,6-difluoro-4-azaspiro[2.4]heptane-4-carbonyl}-2H,4H,5H,6H,7H-pyrazolo[4,3-c]pyridine-5-carboxamide] here?
A: Its EC50 is < 1000 nM.

Q: Which EC50 does the source give for CN(C(=O)c1[nH]nc2c1CN(C(=O)Nc1ccc(F)c(Cl)c1)CC2)C1(COC(=O)C2(N)CC2)CC1 [Example 10, (1-{-methyl5-[(3-chloro-4-fluorophenyl)carbamoyl]-2H,4H,5H, 6H,7H-pyrazolo[4,3-c]pyridine-3-amido}cyclopropyl)methyl 1-aminocyclopropane-1-carboxylate] here?
A: Its EC50 is < 1000 nM.

Q: How did the EC50 turn out when O=C(Nc1ccc(F)c(Cl)c1)N1CCc2n[nH]c(C(=O)N3CCCOCC34CC4)c2C1 [Example 11, N-(3-chloro-4-fluorophenyl)-3-{8-oxa-4-azaspiro[2.6]nonane-4-carbonyl}-2H,4H,5H,6H,7H-pyrazolo[4,3-c]pyridine-5-carboxamide] was run?
A: The EC50 was < 1000 nM.

Q: Which EC50 does the source give for O=C(Nc1ccc(F)c(Cl)c1)N1CCc2n[nH]c(C(=O)N3CCC(O)CC34CC4)c2C1 (stereo not shown) [Example 12, N-(3-chloro-4-fluorophenyl)-3-{7-hydroxy-4-azaspiro[2.5]octane-4-carbonyl}-2H,4H,5H,6H,7H-pyrazolo[4,3-c]pyridine-5-carboxamide] here?
A: Its EC50 is < 1000 nM.

Same assay, conditions: read-out: Cell Activity (EC50); HepAD38 cells, HBV DNA in supernatant at day 6, qPCR

Q: With CC1Cc2n[nH]c(C(=O)N3CC(F)(F)CC34CC4)c2CN1C(=O)Nc1ccc(F)c(Cl)c1 (single isomer, unassigned) [Example 9, N-(3-chloro-4-fluorophenyl)-3-{6,6-difluoro-4-azaspiro[2.4]heptane-4-carbonyl}-6-methyl-2H,4H,5H,6H,7H-pyrazolo[4,3-c]pyridine-5-carboxamide] as the compound, how does the EC50 read?
A: Its EC50 is < 1000 nM.
